The values that follow come from US12428412B2 (DANA-FARBER CANCER INSTITUTE, INC., priority 2018, dated 2025).

For series [1], the system named is Kelly cell lines xenograft. Nature of the series: Xenograft model of Kelly cell lines. Format: in vivo. As to conditions: 40 mpk IP from day 10. The text has this: The xenograft model of Kelly cell lines was used to assess the in vivo efficacy. The Kelly cells were implanted 2 M into animals. The treatment started with day 10 at 40 mpk IP.
For the next series, the system named is H3K27Ac. Nature of the series: Immunohistochemistry (IHC) staining of liver from MTD study, H3K27Ac. The series is classed as in vivo. The settings on record: normal mice, 40 mpk, 14-day treatment. An excerpt: Immunohistochemistry (IHC) staining was used to examine a liver from MTD study. […] No changes in CBP and H3K27Ac levels were observed.
The subject of the next series is U266 cells. The series can be described thus: 4-day growth inhibition assay (ATPlite / cell counting kit), U266 cells. The series is classed as cell-based. As to conditions: 0-10 μM. On the procedure:
(§1) An aliquot of the ATP standard solution (ATPlite™ 1000 assay kit, PerkinElmer®, USA) was used to prepare a dilution series in water. A series of 100 μL of complete culture medium was pipetted without cells into the wells of the plate. To each well was added 50 μL of the mammalian cell lysis solution, and the plate was shaken for 5 minutes in an orbital shaker at 700 rpm. 10 μL of the ATP dilution series was added to the wells, and the plate was shaken for 5 minutes in an orbital shaker at 700 rpm. 50 μL of the substrate solution was added and the plate was shaken for 5 minutes in an orbital shaker at 700 rpm. The plate dark adapted the plate for 10 minutes prior to measuring the luminescence and then preparing a standard curve.
In general terms: ATP-based viability assays read luminescence as a measure of living cells.

The nature of series [2]: Maximum tolerated dose (MTD) study in mice. The series is classed as in vivo. As to conditions: mice, 10, 20 and 40 mg/kg. Here is the method:
(§2) CPD 1 was tested in mice for maximum tolerated dose (MTD) (FIG. 6A). The mice were treated with 10 mg/kg (mpk), 20 mpk, and 40 mpk with 4 mice in each group. The compound was also tested in human CRBN knock in mice, the blood samples were collected after 21 day treatment. All the tested blood samples were normal.

The target of series [3] is T1, CBP (Homo sapiens, UniProt Q92793).
T1 construct: endogenous in cells; host or cells: Kelly neuroblastoma cells (incl. Ch2.2, LACZ and CRBN knockout lines)
T1 sequence (Q92793 whole entry): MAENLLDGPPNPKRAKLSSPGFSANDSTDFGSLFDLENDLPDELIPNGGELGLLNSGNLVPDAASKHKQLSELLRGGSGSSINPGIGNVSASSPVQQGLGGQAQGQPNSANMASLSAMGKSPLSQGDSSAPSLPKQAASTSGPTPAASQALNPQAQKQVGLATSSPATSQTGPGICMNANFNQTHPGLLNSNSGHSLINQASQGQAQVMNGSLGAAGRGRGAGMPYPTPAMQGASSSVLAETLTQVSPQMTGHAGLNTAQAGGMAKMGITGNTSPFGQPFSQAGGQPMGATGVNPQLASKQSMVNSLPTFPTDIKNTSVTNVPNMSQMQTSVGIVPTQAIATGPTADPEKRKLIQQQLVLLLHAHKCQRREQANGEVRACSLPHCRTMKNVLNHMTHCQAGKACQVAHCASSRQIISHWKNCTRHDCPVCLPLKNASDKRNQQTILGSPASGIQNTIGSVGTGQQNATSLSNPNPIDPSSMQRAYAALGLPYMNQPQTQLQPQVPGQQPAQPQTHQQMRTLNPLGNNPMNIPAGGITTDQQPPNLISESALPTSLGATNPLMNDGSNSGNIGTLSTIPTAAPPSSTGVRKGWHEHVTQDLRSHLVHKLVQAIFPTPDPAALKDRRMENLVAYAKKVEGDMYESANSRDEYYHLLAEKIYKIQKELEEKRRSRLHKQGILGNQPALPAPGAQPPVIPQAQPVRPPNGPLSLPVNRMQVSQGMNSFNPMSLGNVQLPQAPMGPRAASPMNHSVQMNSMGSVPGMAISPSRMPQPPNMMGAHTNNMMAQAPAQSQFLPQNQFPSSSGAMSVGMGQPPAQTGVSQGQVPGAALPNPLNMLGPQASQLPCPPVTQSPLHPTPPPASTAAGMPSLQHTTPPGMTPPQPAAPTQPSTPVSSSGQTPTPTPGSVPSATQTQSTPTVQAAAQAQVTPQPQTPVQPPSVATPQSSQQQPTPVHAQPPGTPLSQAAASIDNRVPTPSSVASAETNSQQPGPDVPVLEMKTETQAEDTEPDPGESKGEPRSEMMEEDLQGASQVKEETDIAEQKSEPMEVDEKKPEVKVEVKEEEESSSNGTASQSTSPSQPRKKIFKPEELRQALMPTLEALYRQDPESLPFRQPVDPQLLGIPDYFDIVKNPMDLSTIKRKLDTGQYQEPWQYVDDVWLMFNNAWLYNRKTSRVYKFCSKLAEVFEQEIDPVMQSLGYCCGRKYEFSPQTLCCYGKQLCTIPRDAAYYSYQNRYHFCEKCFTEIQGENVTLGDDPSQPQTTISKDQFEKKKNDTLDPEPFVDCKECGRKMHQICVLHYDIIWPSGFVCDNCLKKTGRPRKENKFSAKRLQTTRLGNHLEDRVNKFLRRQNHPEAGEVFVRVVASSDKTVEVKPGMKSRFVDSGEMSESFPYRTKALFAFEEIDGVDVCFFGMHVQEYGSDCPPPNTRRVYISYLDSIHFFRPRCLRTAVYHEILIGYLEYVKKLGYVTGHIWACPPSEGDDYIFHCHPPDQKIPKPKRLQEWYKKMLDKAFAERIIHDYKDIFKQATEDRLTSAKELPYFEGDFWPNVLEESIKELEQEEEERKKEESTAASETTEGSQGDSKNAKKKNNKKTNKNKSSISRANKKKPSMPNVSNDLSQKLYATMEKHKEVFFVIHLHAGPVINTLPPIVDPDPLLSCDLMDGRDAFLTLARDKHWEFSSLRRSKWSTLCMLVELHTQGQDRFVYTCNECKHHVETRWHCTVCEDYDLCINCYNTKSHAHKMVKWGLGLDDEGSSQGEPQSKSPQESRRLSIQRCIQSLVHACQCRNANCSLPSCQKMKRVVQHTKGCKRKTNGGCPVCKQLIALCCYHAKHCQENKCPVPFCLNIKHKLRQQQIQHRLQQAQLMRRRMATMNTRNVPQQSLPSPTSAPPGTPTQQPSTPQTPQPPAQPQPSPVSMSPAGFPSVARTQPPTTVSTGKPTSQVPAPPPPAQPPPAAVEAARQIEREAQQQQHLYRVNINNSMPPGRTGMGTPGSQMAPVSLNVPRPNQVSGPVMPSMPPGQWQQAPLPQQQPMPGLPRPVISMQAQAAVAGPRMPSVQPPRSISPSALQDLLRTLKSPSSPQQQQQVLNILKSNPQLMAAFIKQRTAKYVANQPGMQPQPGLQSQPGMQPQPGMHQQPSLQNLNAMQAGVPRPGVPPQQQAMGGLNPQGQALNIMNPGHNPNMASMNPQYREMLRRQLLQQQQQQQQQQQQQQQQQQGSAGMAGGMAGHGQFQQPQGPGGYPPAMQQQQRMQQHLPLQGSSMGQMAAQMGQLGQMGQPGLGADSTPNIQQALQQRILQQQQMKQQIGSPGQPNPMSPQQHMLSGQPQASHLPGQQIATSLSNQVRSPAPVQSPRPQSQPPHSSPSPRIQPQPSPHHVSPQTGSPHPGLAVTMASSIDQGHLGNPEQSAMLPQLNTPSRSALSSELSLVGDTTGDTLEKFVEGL
Nature of the series: Cellular degradation assay (immunoblot) in Kelly NB cells, CBP. Format: cell-based. Here is the method: Kelly Neuroblastoma cells were seeded at 1,000,000 cells per well in 6 well plates and were treated in a dose-dependent manner for 24 to 72 hours. Whole cell lysates were collected using ice cold lysis buffer [300 mM NaCl, 50 mM Tris-HCl, pH 7.5, 0.5% Triton X-100, 1% SDS, 1 mM dithiothreitol (DTT), Roche® protease inhibitor cocktail (1:000), 25 units/mL Benzonase] and blotted at a protein concentration of 20 μg. Histone extraction was performed using the EpiQuik™ Total Histone Extraction Kit (OP-0006-100, Epigentek) and blotted at a protein concentration of 4 μg.
Whole cell lysates were resolved in NuPAGE® 3-8% Tris-Acetate polyacrylamide gels (EA03785BOX, Invitrogen™) and histone extraction lysates in Bolt 4-12% Bis-Tris polyacrylamide gels (NWO4125BOX, Invitrogen™). Afterwards, gels were transferred to nitrocellulose membranes (LC2001, Invitrogen™). […]
The experimental protocol is the same as in Example 24. The protein level was determined by immunoblot using EP300 antibody, CBP antibody or H3K27ac antibody. […]
For orientation: Immunoblotting shows a protein as a band on a membrane.

For a further series, the system named is NB zebra fish model. Nature of the series: NB zebra fish model. Format: in vivo. On the procedure:
(§3) Maximum tolerance dose (MTD) of each candidate was determined in zebrafish embryos. 3-day-old zebrafish embryos were exposed to different drug concentrations and monitored for adverse health effects. […] Experiments were first carried out with compound CPD 1 as a guide in the further design of MTD assessment of lead EP300 degraders (FIG. 6B). The MTD of the degrader is also determined in mice in the similar manor. Briefly, mice were dosed with test compounds and blood and plasma is isolated at specific intervals post-administration (0.083, 0.25, 0.5, 1, 2, 4, 8, 12, and 24 h) and quantified for the presence of test article by LC/MS/MS (n=5 mice/compound). In vivo mouse PK experiments were used to determine these parameters and inform iterative rounds of medicinal chemistry for optimization of EP300 degraders (FIG. 6A). As degraders have a relatively large molecular weight, the proper formulation is investigated to increase the solubility and stability of the degraders for in vivo study. Together, these parameters, including the established MTD, are used to guide the in vivo study design, such as administration method, dosing, and schedule for the following experiment. The information obtained was also used to guide the degrader optimization conducted in Example 36.

Series [4] in a line: Tolerability in human CRBN knock in mice. Format: in vivo. On the procedure: as §2
In series [5] the test system is MM.1S cells. The series can be described thus: 4-day growth inhibition assay (ATPlite / cell counting kit), MM.1S cells. Format: cell-based. As to conditions: 0-10 μM. On the procedure: as §1
Series [6] in a line: Mouse PK after intraperitoneal injection, blood concentration by LCMS/MS. As to conditions: IP 10 mg/kg, male CD1 mice. Format: in vivo. On the procedure:
The compound concentration in animal blood was measured by LCMS/MS through a series bleeding at different time points. […] A-485 half life is 0.7 h in mice.
as §3

In series [7] the test system is MM.1S cells. Nature of the series: 6-day MTT assay, MM.1S cells. Format: cell-based. As to conditions: 0-10 μM. On the procedure: Media from cell cultures was discarded. For adherent cells, the media was carefully aspirated. For suspension cells, the 96 well plate at 1,000×g, 4° C., was spun for 5 minutes in a microplate-compatible centrifuge and the media was carefully aspirated. The volume of existing media has to be the same for each sample. Fifty (50) μL of serum-free media and 50 μL of MTT solution were added into each well. The plate was incubated at 37° C. for 3 hours.
After incubation, 150 μL of MTT solvent were added into each well. The plate was wrapped in foil and shaken on an orbital shaker for 15 minutes. Absorbance was read at OD=590 nm. Reading was performed within 1 hour.
Background: Tetrazolium assays rely on reduction of a dye to a coloured formazan, in cell work by metabolically active cells.

In series [8] the target is T1, CBP. The series can be described thus: Proteomics analysis in Kelly NB cells, CBP. Format: cell-based. As to conditions: 500 nM, 6 hours and 36 hours. On the procedure: FIG. 9C is a plot of the proteomics analysis results after treating Kelly NB cells with CPD 1 (500 nM) at 6 hours and 36 hours.

Usually Cmax stands for the peak of the concentration-time curve. In general, half-life refers to the time needed for the level to fall by half in the phase considered. Higher therefore signals slow loss. Regarding `C[C@H](N(Cc1ccc(F)cc1)C(=O)CN1C(=O)O[C@@]2(CCc3cc(NC(=O)CCCCCCCCCCCNc4ccc5c(c4)C(=O)N(C4CCC(=O)NC4=O)C5=O)ccc32)C1=O)C(F)(F)F` (stereo partly drawn) [CPD 1, 12-((2-(2,6-dioxopiperidin-3-yl)-1,3-dioxoisoindolin-5-yl)amino)-N—((R)-3′-(2-((4-fluorobenzyl)((S)-1,1,1-trifluoropropan-2-yl)amino)-2-oxoethyl)-2′,4′-dioxo-2,3-dihydrospiro[indene-1,5′-oxazolidin]-5-yl)dodecanamide], in series [1], the survival of animals entry was “extended the survival of animals” and the tumor progression entry was “reduced tumor progression”. For the same molecule, in the series on H3K27Ac, the “H3K27Ac level in liver tissue” value is recorded as “No changes”. Further, the “growth inhibition compared with A485” value in the series with U266 cells is recorded as “outperformed inhibitor A485”. Besides, in series [2], the body weight loss entry is listed as “no weight loss was observed” and the tolerability result is recorded as “well tolerated”. Also, the CBP degradation result on CBP [3] (after 48 hour) is “degradation of CBP was observed”. In addition, the CBP level entry at CBP [3] (first 36 hours) is “without affecting the CBP level”. Moreover, the tumor growth inhibition entry with NB zebra fish model (NB zebra fish model, 0.25 μM and 0.5 μM) is “tumor growth inhibition”. Besides, the “toxicity in zebra fish study” value in the series with NB zebra fish model (zebra fish) was “No toxicity was observed”. For the same molecule, in series [4] (human CRBN knock in mice, after 21 day treatment), the blood samples entry is on record as “normal”. Also, the toxicity result in series [4] (humanized CRBN mice) is reported as “no toxicity was observed”. In addition, in the series with MM.1S cells [5], the “growth inhibition compared with A485” value is reported as “outperformed inhibitor A485”. For the same molecule, the “toxicity in PK study” value in series [6] was “No toxicity was observed”. For the same molecule, in [6] (mouse, whole blood, n=3), the peak concentration (Cmax) was determined as 5 µM and the half-life is 13 h. In addition, in the series with MM.1S cells [7], the “growth inhibition compared with A485” value was “outperformed inhibitor A485”. The “CBP level (proteomics)” value on CBP [8] was “No changes in the CBP level were observed”.
